Key:
[1] = test system: Beta-TC-6 cells; experiment: Insulin release enhancement in Beta-TC-6 cells (insulin ELISA); type: cell-based, mouse; details: for Percent Enhancement of Insulin Secretion (10 μM): compound at 10 μM, compared to glucose-dependent insulin production
Procedure: Beta-TC-6 cells are an insulin-secreting cell line derived from transgenic mice expressing the large T-antigen of simian virus 40 (SV40) in pancreatic beta-cells as described by Poitout et al., Diabetes, 44:306-313 (1995). The cell line was obtained from ATCC cell bank CAT# CRL-11506 and grown in Dulbecco's Modified Eagle's Medium (DMEM) with 15% fetal bovine serum (FBS), 4 mM glutamine, 4.5 mM glucose 1500 mg/L sodium bicarbonate and 1× penn/strep antibiotic mix in a 37° C. incubator with 5% CO2. Cultures were routinely split 1:2 twice a week with the aid of trypsin.
On the day before the assay 0.1×10^6 Beta-TC-6 cells were plated into each well of 96 well plates, and the cells cultured overnight in growth media.
On the next day, growth media was removed from the plate and the monolayers rinsed with phosphate buffered saline (PBS) and pre-incubated 30 mins at 37° C. in Krebs-Ringer Bicarbonate Buffer (KRBB) consisting of 118.5 mM NaCl, 2.54 mM CaCl2, 1.19 mM KH2PO4, 4.74 mM KCl, 25 mM NaHCO3, 1.19 mM MgSO4, 10 mM HEPES buffer and 0.1% bovine serum albumin at pH 7.4. This buffer was removed and replaced with 100 μL of the same buffer containing various insulin release modulators: including various concentrations of glucose up to 12 mM and compounds up to 100 μM. Compounds stock solutions, e.g. 10-20 mM, were diluted in DMSO. Final DMSO concentrations in incubation buffer were 0.5% or less. Vehicle controls were included. Static incubations were then performed for 2 h at 37° C. The entire incubation volume was collected after the 2 h incubation for insulin assay.
ELISA Protocol for insulin determinations. The following protocol was used for doing ELISA using the Rat/Mouse Insulin ELISA Kit from Linco Research, Inc., CAT#EZRMI-13K and Amplex® Red Hydrogen Peroxide/Peroxidase Assay Kit, CAT#A22188, and Amplex® Red reagent (10-acetyl-3,7-dihydroxyphenoxazine) CAT#A12222.
All reagents were Pre-warmed to room temperature before setting up experiment.
1. Dilute the 10× washing buffer into 1× washing buffer. 50 mL+450 mL de-ionized water. Do 1:10 dilution to the cell culture supernatant (Beta-TC-6 cell incubation).
2. Use one column (8 wells) wells for standard samples and QC1 and QC2, typically 0 and 5 ng/mL of insulin. On some plates full standard curves for insulin obtained as shown below.
3. Cover the unused wells well. Wash each well 3 times with 300 μL of 1× washing buffer each time. (2 minutes each washing step on the shaker.) Decant Wash Buffer and remove the residual amount from all wells by inverting the plate and tapping it smartly onto absorbent towels several times.
4. Add 20 μL Assay Buffer into that blank well and 10 μL into those wells for standards and samples.
5. Add 10 μL rat insulin standards and samples to the appropriate wells.
6. Add 80 μL Detection Antibody to all wells. Cover the plate and incubate at room temperature for 2 hours.
7. Tear off the plate cover and decant solutions from the plate. Tap to remove residual solutions in well.
8. Wash well 3 times with diluted wash buffer 300 μL per well per wash (2 minutes each washing step on the shaker). Tap to remove residual solutions as before.
9. Add 100 μL Enzyme Solution to each well. Cover plate with sealer and incubate with moderate shaking at room temperature for 30 min on the microtiter plate shaker.
10. Remove sealer, decant solutions from the plate and tap plate to remove the residual fluid.
11. Wash wells 6 times with diluted Wash Buffer, 300 μL per well per wash. Decant and tap after each wash to remove residual buffer.
12. Prepare 5 mL working solution of […] Amolex Red reagent containing 2.0 mM H2O2. 4.45 mL of 1× Reaction buffer+50 μL 10 mM Amplex Reagent+500 μL 20 mM H2O2.
13. Add 100 μL of the Amplex Red reagent/H2O2 to each well.
14. Incubate the reactions. Incubate at room temperature for 30 minutes, protected from light (using foil to wrap the plate). […]

[2] = test system: GLUTag cells; experiment: GLP-1 release from GLUTag cells (GLP-1 ELISA); type: cell-based, mouse; details: for IC50: Mus musculus, GLUTag cells
[3] = moderately high glucose (3.3 mM), FIG. 18

| Compound | Percent Enhancement of Insulin Secretion (10 μM) [1] [%] | IC50 ([2]; low glucose (0.1 mM), FIG. 19) [nM] | GLP-1 release ([2]; low glucose (0.1 mM), FIG. 19) | GLP-1 release [2, 3] | insulin secretion ([1]; FIG. 5) | glucose dependence of stimulation of insulin release ([1]; varying glucose concentration, FIG. 3 and FIG. 7) | GLP-1 secretion ([2]; 10 mM glucose, FIG. 16) |
| --- | --- | --- | --- | --- | --- | --- | --- |
| COc1ccc(/C=N/NC(=O)CCn2c3ccccc3c3ccccc32)cc1OC [Example 23, 3-Carbazol-9-ylpropionic acid (3,4-dimethoxybenzylidene)hydrazide] | 208 | 111 | increase GLP-1 release | increase GLP-1 release |  |  |  |
| COc1ccc(/C=N/NC(=O)Cc2cccc3ccccc23)cc1OC [Example 3, (E)-N′-(3,4-Dimethoxybenzylidene)-2-(naphthalene-1-yl)acetohydrazide] | 250 | 600 | increase GLP-1 release | increase GLP-1 release | increases insulin secretion | increases insulin secretion in a glucose-dependent manner | enhances GLP-1 secretion |

From patent publication US8193168B2, “Use of a TRPM5 inhibitor to regulate insulin and GLP-1 release” (Redpoint Bio Corporation, priority 2007, dated 2012)
